Patent publication US7250157B2, “Dermatological compositions and methods” (Applied Genetics Incorporated Dermatics, priority 1996, dated 2007)
Where “and” joins values, the source holds several entries; their conditions need not be identical. Identical values can stand only once.

Legend:
[1] = test system: Tyrosinase in normal human epidermal melanocytes (NHEM); test: Tyrosinase in NHEM (in situ, cellular, extracellular particulate, media); type: cell-based
Procedure: Tyrosinase was measured in normal human epidermal melanocytes (NHEM) using procedures identical to those described for S91 cells (Example 6), […], 1600×g, or 17,300×g for analysis of tyrosinase activity in the extracellular exported melanosomal particulate fraction, and in the resultant supernatant media fraction. In some cases (Table 11), tyrosinase was also measured by an in situ assay wherein radiolabelled tyrosine was added directly to freshly replaced media of NHEM for a period of 24 hrs following a 5 day treatment period (Abdel-Malek, et al., 1992, J. Cell. Physiol. 150:416-425). […] Both 5 mM 5-NBene-2,2-DM and 25 mM 3,3-M-1,2-BD induced more tyrosinase in each of these assays and fractions than did 1,2-PG. IBMX (3-isobutyl-1-methyl-xanthine) provided as a positive control, induced as much tyrosinase as 5 mM 5-NBene-2,2-DM in the in situ assay, but less in cellular, extracellular particulate and media fractions (Table 11).

[2] = test system: tyrosinase activity in S91 mouse melanoma cells; test: Induction of tyrosinase activity in S91 cells
Procedure: Compounds were examined for their ability to induce tyrosinase activity in S91 mouse melanoma cells. […] Following treatments, cells were trypsinized, counted by Coulter, pelleted by centrifugation at 1000×g, and analyzed for tyrosinase activity using modifications of previously described procedures (Pomerantz, S. H., 1966, J. Biol. Chem. 241:161-168; Jara, et al., 1988, Pigment Cell Res. 1: 332-339.). Briefly, cell pellets were solubilized by sonicating for 5 seconds in 600 ul 50 mM phosphate buffer pH 6.8 containing 0.5% Triton-X100, followed by vortexing, incubation on ice for 30 min, and then revortexing. From this, 200 ul aliquots were combined with 200 ul of reaction mixture containing either 75 uM tyrosine, 75 uM L-Dopa, and 2 uCi L-[3,5-^3H]Tyrosine in 50 mM NaPO4 pH 6.8 (L-Dopa+), or, 75 uM tyrosine, and 2 uCi L-[3,5-^3H]Tyrosine in 50 mM NaPO4 pH 6.8 (L-Dopa−) and incubated 1 hr at 37° C. Reactions were stopped by addition of 400 ul 10% activated charcoal in 0.1N HCl and incubation on ice for 15 min. This mixture was centrifuged at 17,300×g for 5 min, and 400 ul supernatant was then filtered through a 0.22 uM GV Durapore centifugal filter unit (Millipore) by centrifuging at 17,300×g for 5 min. Filtrate was added to 4 ml Fisher Plus scintillation fluid and counted on a Hewlett Packard scintillation counter. Tyrosinase activity was calculated as dpm/hr/ug protein and dpm/hr/10^3 cells. Each sample was analyzed with and without L-Dopa, a necessary cofactor for tyrosinase (Pomerantz, S. H., 1966, J. Biol. Chem. 241:161-168; McLane, et al., 1987, Biochem. Biophys. Res. Commun. 145:719-725). All reported tyrosinase values are exclusive of counts that occurred in buffer blanks and L-dopa negative aliquots. Protein was determined on aliquots of cell lysate, extracellular particulate lysate or media by the Bradford Coomassie Blue method (Bradford, 1967, Anal. Biochem. 72:248-254) using Bio-Rad Protein Assay Kit I.

[3] = 5 day treatment, concentrations as E130
[4] = pair of replicates, concentrations as E130
[5] = 300 mM PG-1,2, 25 mM 3,3-M-1,2-BD, 50 mM 1,2-cs-CPD, 5 mM 5-NBene-2,2-DM, 0.5 mM 2,3-Pyd, 0.1 mM IBMX, mean ±SE

OCC1CC2CCC1C2 (centres unmarked) [2-NBaneM, 2-Norbornanemethanol]
Tyrosinase Cellular ([1]; Black-Neonatal-NHEM, 1 mM): 10863 dpm/hr/10^3 cells
Tyrosinase Cellular relative to Control ([1]; Black-Neonatal-NHEM, 1 mM): 1.10 X
Tyrosinase In Situ ([1]; Black-Neonatal-NHEM, 1 mM): 12.1 dpm/hr/10^3 cells
Tyrosinase In Situ relative to Control ([1]; Black-Neonatal-NHEM, 1 mM): 0.97 X
Tyrosinase Media relative to Control ([1]; Black-Neonatal-NHEM, 1 mM): 1.68 X
Tyrosinase Media ([1]; Black-Neonatal-NHEM, 1 mM, media from 1 day treatment period): 18.7 dpm/hr/10^3 cells
Tyrosinase Cellular ([1]; Black-Neonatal-NHEM, 5 mM): 17397 dpm/hr/10^3 cells
Tyrosinase Cellular relative to Control ([1]; Black-Neonatal-NHEM, 5 mM): 1.77 X
Tyrosinase In Situ ([1]; Black-Neonatal-NHEM, 5 mM): 12.8 dpm/hr/10^3 cells
Tyrosinase In Situ relative to Control ([1]; Black-Neonatal-NHEM, 5 mM): 1.02 X
Tyrosinase Media relative to Control ([1]; Black-Neonatal-NHEM, 5 mM): 3.36 X
Tyrosinase Media ([1]; Black-Neonatal-NHEM, 5 mM, media from 1 day treatment period): 37.3 dpm/hr/10^3 cells
Tyrosinase Cellular ([1]; White-Adult-NHEM, 1 mM): 15257 dpm/hr/10^3 cells
Tyrosinase Cellular relative to Control ([1]; White-Adult-NHEM, 1 mM): 1.09 X
Tyrosinase In Situ ([1]; White-Adult-NHEM, 1 mM): 7.05 dpm/hr/10^3 cells
Tyrosinase In Situ relative to Control ([1]; White-Adult-NHEM, 1 mM): 1.27 X
Tyrosinase Media relative to Control ([1]; White-Adult-NHEM, 1 mM): 1.11 X
Tyrosinase Media ([1]; White-Adult-NHEM, 1 mM, media from 1 day treatment period): 29.2 dpm/hr/10^3 cells
Tyrosinase Cellular ([1]; White-Adult-NHEM, 5 mM): 16077 dpm/hr/10^3 cells
Tyrosinase Cellular relative to Control ([1]; White-Adult-NHEM, 5 mM): 1.15 X
Tyrosinase In Situ ([1]; White-Adult-NHEM, 5 mM): 6.18 dpm/hr/10^3 cells
Tyrosinase In Situ relative to Control ([1]; White-Adult-NHEM, 5 mM): 1.11 X
Tyrosinase Media relative to Control ([1]; White-Adult-NHEM, 5 mM): 1.33 X
Tyrosinase Media ([1]; White-Adult-NHEM, 5 mM, media from 1 day treatment period): 48.1 dpm/hr/10^3 cells
induction of tyrosinase in S91 cells compared with 5-NBene-2,2-DM (FIG. 2) [2]: Lesser induction

OCC1(CO)CC=CCC1 [3-cyclohexane-1,1-dimethanol]
Fold Induction of Tyrosinase Relative to Controls ([2]; 1 mM (Table 16)): 1.4X
Fold Induction of Tyrosinase Relative to Controls ([2]; 2.5 mM (Table 16)): 2.3X
Fold Induction of Tyrosinase Relative to Controls ([2]; 5 mM (Table 16)): 7.0X

O=C(O)[C@@H]1[C@H](C(=O)O)[C@@H]2C=C[C@H]1C2 [5-norbornene-2,3-cis/endodicarboxylic acid]
Fold Induction of Tyrosinase Relative to Controls ([2]; 1 mM (Table 15)): 2.2X
Fold Induction of Tyrosinase Relative to Controls ([2]; 5 mM (Table 15)): 1.0X

CC1(C)C2CC=C(CO)[C@@H]1C2 [(1R)-(−)-myrtenol, (1R)-2-pinen-10-ol]
Fold Induction of Tyrosinase Relative to Controls ([2]; 0.5 mM (Table 19)): 13.6X
Fold Induction of Tyrosinase Relative to Controls ([2]; 1 mM (Table 19)): 17.6X
Fold Induction of Tyrosinase Relative to Controls ([2]; 2.5 mM (Table 19)): 2.2X

CC1CCC2CC1C2(C)C [(1R)-(−)-α-pinane]
Fold Induction of Tyrosinase Relative to Controls ([2]; 0.5 mM (Table 19)): 1.2X
Fold Induction of Tyrosinase Relative to Controls ([2]; 1 mM (Table 19)): 0.8X
Fold Induction of Tyrosinase Relative to Controls ([2]; 2.5 mM (Table 19)): 0.9X

CC(C)[C@@H]1CC[C@@H](C)C[C@H]1O [(1R,2S,5R)-(−)-menthol, (1R,2S,5R)-2-isopropyl-5-methylcyclohexanol]
Fold Induction of Tyrosinase Relative to Controls ([2]; 0.5 mM (Table 19)): 2.0X
Fold Induction of Tyrosinase Relative to Controls ([2]; 1 mM (Table 19)): 1.3X

CC1CCC2CC1C2(C)C [(1S)-(−)-α-pinane]
Fold Induction of Tyrosinase Relative to Controls ([2]; 0.5 mM (Table 19)): 1.4X
Fold Induction of Tyrosinase Relative to Controls ([2]; 1 mM (Table 19)): 1.1X
Fold Induction of Tyrosinase Relative to Controls ([2]; 2.5 mM (Table 19)): 1.4X
Fold Induction of Tyrosinase Relative to Controls ([2]; 5 mM (Table 19)): 1.2X

CC(C)[C@H]1CC[C@H](C)C[C@@H]1O [(1S,2R,5S)-(+)-menthol, (1S,2R,5S)-2-isopropyl-5-methylcyclohexanol]
Fold Induction of Tyrosinase Relative to Controls ([2]; 0.5 mM (Table 19)): 0.7X
Fold Induction of Tyrosinase Relative to Controls ([2]; 1 mM (Table 19)): 1.3X

CC1(C)[C@@H]2C[C@@H](O)[C@@](C)(O)[C@H]1C2 [(1S,2S,3R,5S)-(+)-pinanediol]
Fold Induction of Tyrosinase Relative to Controls ([2]; 1 mM (Table 19)): 9.9X
Fold Induction of Tyrosinase Relative to Controls ([2]; 2.5 mM (Table 19)): 68.4X
Fold Induction of Tyrosinase Relative to Controls ([2]; 5 mM (Table 19)): 39.9X

CC1(C)[C@@H]2CC(=O)[C@@](C)(O)[C@H]1C2 [(1S,2S,5S,)-2-hydroxy-3-pinanone]
Fold Induction of Tyrosinase Relative to Controls ([2]; 1 mM (Table 19)): 4.1X
Fold Induction of Tyrosinase Relative to Controls ([2]; 2.5 mM (Table 19)): 37.1X
Fold Induction of Tyrosinase Relative to Controls ([2]; 5 mM (Table 19)): 94.9X
relative melanogenic potency in S91 cells (in words) ([2]; Table 19 data): about half as potent as (1R, 2R, 3S, 5R)-(−)-pinanediol

CC1=CC[C@@H](C(C)(C)O)CC1 [(−)-a-terpineol, (S)-p-menth-1-en-8-ol]
Fold Induction of Tyrosinase Relative to Controls ([2]; 0.5 mM (Table 19)): 6.2X
Fold Induction of Tyrosinase Relative to Controls ([2]; 1 mM (Table 19)): 7.1X
Fold Induction of Tyrosinase Relative to Controls ([2]; 2.5 mM (Table 19)): 4.7X

Cl.Cl.O=S(=O)(NCCNCC=Cc1ccc(Br)cc1)c1cccc2cnccc12 [H-89, reference compound]
effect on induction of tyrosinase by 5-NBene-2,2-DM in S91 cells (in words) [2]: augmentation of basal and 5-NBene-2,2-DM-induced tyrosinase levels
Tyrosinase Relative to Control ([2]; 1 uM H-89): 1.3X
Tyrosinase dpm/hr/ug Protein ([2]; 1 uM H-89): 507 dpm/hr/ug Protein
Tyrosinase Relative to Control ([2]; 10 uM H-89): 3.1X
Tyrosinase dpm/hr/ug Protein ([2]; 10 uM H-89): 1236 dpm/hr/ug Protein

CC(C)Cn1c(=O)n(C)c(=O)c2[nH]cnc21 [IBMX, 3-isobutyl-1-methylxanthine, reference compound]
Tyrosinase In Situ ([1]; 5 day treatment, 300 mM 1,2-PG, 25 mM 3,3-M-1,2-BD, 5 mM 5-NBene-2,2-DM, 0.1 mM IBMX): 25.3 dpm/hr/10^3 Cells and 26.1 dpm/hr/10^3 Cells
Tyrosinase 200 g Partic [1, 3]: 2189 dpm/hr/10^3 Cells and 1834 dpm/hr/10^3 Cells
Tyrosinase Cellular [1, 3]: 10910 dpm/hr/10^3 Cells and 11737 dpm/hr/10^3 Cells
Tyrosinase 17300 g Partic ([1]; Post 200 X g, 5 day treatment, concentrations as E130): 220 dpm/hr/10^3 Cells and 260 dpm/hr/10^3 Cells
Tyrosinase Media ([1]; Post 17300 X g, 5 day treatment, concentrations as E130): 2698 dpm/hr/10^3 Cells and 2935 dpm/hr/10^3 Cells
Tyrosinase 200 g Partic, relative to controls (in parentheses) [1, 4]: (5.86X)
Tyrosinase 17300 g Partic, relative to controls (in parentheses) [1, 4]: (2.10X)
Tyrosinase Cellular, relative to controls (in parentheses) [1, 4]: (1.11X)
Tyrosinase In Situ, relative to controls (in parentheses) [1, 4]: (1.62X)
Tyrosinase Media, relative to controls (in parentheses) [1, 4]: (1.81X)
Tyrosinase dpm/hr 10^3 Cells [2, 5]: 765 ± 53 dpm/hr/10^3 Cells
Tyrosinase dpm/hr ug Protein [2, 5]: 2161 ± 41 dpm/hr/ug Protein
